Source: patent US11827543B2, “Method for continuous supply of superoxide-containing peracetate oxidant solution” (Clean Chemistry, Inc., priority 2014, dated 2023)

Columns and labels:
bacteria = experiment: ATP concentration (LuminUltra metabolic ATP measurement) in oxidant-treated water; type: cell-based
[1] = ORP (oxidative-reductive potential) measurement of solutions and treated water; type: physicochemical; conditions: for ORP (mV vs SHE): early flowback water, Example 19, 1.7 mmol/L oxidant; for ORP (mV vs SHE), maximum: produced water
Method: Example 9: Hydrogen Peroxide Residual Concentration and interference. A sodium peracetate oxidant solution was produced according to the procedure in Example 4 and diluted to 2800 mg/L (28.5 mmol/L) with either distilled water, for clean water conditions, or tap water containing about 0.18 mg/L copper, which served as an activation catalyst. Some samples were spiked with 30 or 60 mg/L (0.88 or 1.76 mmol/L, respectively) hydrogen peroxide from a 1000 mg/L stock solution. […] The temperature of the samples was maintained at 25±2° C. with a heated water bath. The ORP response was monitored over time to observe the impact of adding low concentrations of hydrogen peroxide. The pH was measured using a high sodium electrode (Oakton model 35805-05) with three point calibration and automatic temperature correction. The ORP (oxidative-reductive potential) of solutions was measured using an Oakton model 35805-15 ORP probe calibrated to the standard hydrogen electrode (SHE) using Thermo/Orion ORP standard 967901.
(§1) Water parameters were measured by a variety of methods. The pH was measured using a high sodium electrode (Oakton model 35805-05) with three point calibration and automatic temperature correction. The ORP (oxidative-reductive potential) of solutions was measured using an Oakton model 35805-15 ORP probe calibrated to the standard hydrogen electrode (SHE) using Thermo/Orion ORP standard 967901. Sodium ion concentration was measured using a Cole-Parmer ion selective electrode, EW-27504-30, with two point calibration of a sodium standard solution of NaCl. Chloride ion concentration was measured using a Cole-Parmer ion selective electrode, SC-27504-08, with two point calibration of a chloride standard solution of NaCl. All measurements using HACH methods were measured using a HACH DR900 colorimeter. Calcium, magnesium and total hardness concentrations were measured using HACH method 8030. Sulfate concentration was measured using HACH method 10248. Aluminum concentration was measured using HACH method 8012. Iron concentration was measured using HACH method 10249 modified with a longer reaction time to minimize interferences from organic impurities. Total suspended solids (TSS) concentration was measured using HACH method 8006 modified for smaller volumes. Turbidity was measured using HACH method 8237. ATP (adenosine triphosphate) concentration was measured using the LuminUltra 2nd Generation metabolic ATP measurement technology with the LuminUltra Quench Gone-Organic Modified sampling method, a PhotonMaster Luminometer and LumiCalc software. Acid producing bacteria (ABP) and sulfate reducing bacteria (SRB) cell culture concentrations were measured with standard 1 mL serial dilutions using Intertek APB and SRB culture media, 1% salinity.

pH of treated water = type: physicochemical
Method: as §1

[2] = Jar test water parameters (hardness, calcium, magnesium, chloride, sodium, aluminum, iron, TSS, turbidity); conditions: produced water, Example 17; for Magnesium (mg/L as CaCO3): untreated 170; for Calcium (mg/L as CaCO3): untreated 1080; for Hardness (mg/L as CaCO3): untreated 1250
Method: The water sample was thoroughly mixed and 500 mL dispensed into 1 L beakers to conduct tests using a Phipps and Bird programmable jar tester. The jar tester was programmed for a rapid mix of high shear force at 295 rpm impeller speed for 1.25 minutes, followed by a low shear impeller speed of 25 rpm for 10 minutes to promote coalescence and floc formation. All tests were conducted at room temperature, 20-25° C. The 500 mL water samples were dosed with varying amounts of sodium peracetate oxidant solution during the rapid mix from an oxidant solution that was 2.1% wt/vol sodium peracetate (1.6% wt/vol measured as PAA). Also during the rapid mix the jar samples were dosed with 0.5 to 1 mg/L of an anionic polymer dispersion as a coalescence and floc aid.
Example 17: Oxidative clarification of suspended solids and metals. A produced water sample originating from the Denver-Julesburg basin formation in CO, USA contained suspended and dissolved solids, bacteria and up to about 2% salinity. The water sample was thoroughly mixed and 500 mL dispensed into 1 L beakers to conduct tests using a Phipps and Bird programmable jar tester. The jar tester was programmed for a rapid mix of high shear force at 295 rpm impeller speed for 1.25 minutes followed by a low shear impeller speed of 25 rpm for 20 minutes to promote floc formation and allow for pH and ORP monitoring prior to settling of solids. All tests were conducted at room temperature, 18-21° C. The 500 mL water samples were dosed with varying amounts of sodium peracetate oxidant solution during the rapid mix from an oxidant solution that was 2.2% wt/vol sodium peracetate (1.7% wt/vol measured as PAA). In some cases, during the rapid mix the jar samples were dosed with up to 5 mg/L of an anionic polymer dispersion as a floc aid.

[3] = Half life and attenuation of oxidant solution in clean water; type: physicochemical
Method: Measurement of Sodium Peracetate Concentration: Measurement of sodium peracetate concentration is conducted by using a peroxide iodometric titration procedure from HACH. A known, volumetric aliquot of the peracetate-containing solution is diluted with a volume of distilled water where the total volume is convenient for titration between about 5 and 25 mL in a small glass beaker or flask. The diluted peracetate solution is stirred and 1 mL of ammonium molybdate reagent (HACH reagent 1933-32) is added. Sulfuric acid in the reagent converts the peracetate to peracetic acid. The contents of one Sulfite 1 Reagent packet (HACH reagent 2203-99) is added to the prepared solution and stirred for 5 minutes. The purple color that develops is titrated to a colorless endpoint with a standard sodium thiosulfate solution (for example, 0.0250 N sodium thiosulfate solution). The peroxide concentration is calculated based on the volume of the aliquot of peracetate-containing solution, the volume and concentration of sodium thiosulfate solution, two electron equivalents consumed for each molecule of peroxide and the molecular weight of the peroxide being measured.
Example 8: Half Life and Attenuation of Oxidant Solution: The minimum attenuation rate or degradation rate of the sodium peracetate oxidant solution was measured experimentally in clean water conditions. A sodium peracetate oxidant solution containing an initial concentration of 7.5% (wt/vol) sodium peracetate with an initial pH of about 10.1 was prepared by dissolving 0.34 g of sodium hydroxide (98%) in 10.0 mL of 2.85% wt/vol hydrogen peroxide (topical solution) in a 50 mL beaker. Then 1.22 g of triacetin (99%) was combined and the mixture rapidly stirred for 1-2 minutes at room temperature. […]
The sodium peracetate concentration was measured over time using the method described in Example 4. Concentrations were accurate to about ±2.4% of the values measured. The pH was measured using a high sodium electrode (Oakton model 35805-05) with three point calibration and automatic temperature correction.

[4] = produced water, Example 17, 52 mg/L
[5] = produced water, Example 18, 0.30 mmol/L oxidant
[6] = Piceance produced water, pH 7.00, 22 °C, 500 mg/L initial dose

## CC(=O)O[O-].[Na+] [sodium peracetate oxidant, sodium peracetate]
bacteria; early flowback water, Example 19, 1.7 mmol/L, ATP at 10, 30 and 60 minutes contact time
  rate of reduction of ATP concentration: The sodium peracetate oxidant treated flowback water had a slightly greater rate of reduction of ATP concentration than chlorine dioxide.
bacteria; produced water, Example 17, 29 mg/L
  ATP reduction at 30 min CT: 99.0%
bacteria; produced water, Example 17, 29 mg/L plus 5 mg/L floc aid
  ATP reduction at 30 min CT: 99.6%
bacteria; produced water, Example 17, 29 mg/L plus 5 mg/L floc aid, listed as Sodium Peracetate Oxidant
  ATP reduction at 30 min CT: 99.6%
bacteria; produced water, Example 17, 29 mg/L plus 5 mg/L floc aid, untreated 135
  ATP (pg/mL), at 30 min CT: 0.6 pg/mL
bacteria; produced water, Example 17, 29 mg/L, listed as Sodium Peracetate Oxidant
  ATP reduction at 30 min CT: 99.0%
bacteria; produced water, Example 17, 29 mg/L, untreated 135
  ATP (pg/mL), at 30 min CT: 1.4 pg/mL
bacteria; [4]
  ATP reduction at 30 min CT: 99.3%
bacteria; produced water, Example 17, 52 mg/L, listed as Sodium Peracetate Oxidant
  ATP reduction at 30 min CT: 99.3%
bacteria; produced water, Example 17, 52 mg/L, untreated 135
  ATP (pg/mL), at 30 min CT: 0.9 pg/mL
bacteria; [5]
  ATP (pg/mL), at 30 min CT: 1.4 pg/mL
  ATP reduction at 30 min CT: 99.0%
bacteria; produced water, Example 18, 0.30 mmol/L oxidant, untreated 135
  ATP (pg/mL), at 15 min CT: 4.1 pg/mL
[1]; Piceance produced water, pH 7.00, 22 °C, 100 mg/L initial dose
  ORP, rapid initial increase: ~800 mV vs SHE
[1]; Piceance produced water, pH 7.00, 22 °C, 100 mg/L initial dose, after 120 minutes
  ORP after decline: about 470 mV
[1]; [6]
  ORP, later level: about 1040 mV vs SHE
  ORP, rapid initial increase: about 890 mV vs SHE
[1]; Piceance produced water, first 26 mg/L dose of sequential dosing
  ORP: more than 800 mV vs SHE
[1]; Piceance produced water, single dose 78 mg/L (60 mg/L as PAA)
  ORP maximum: 870 mV vs SHE
[1]; Piceance produced water, single dose 78 mg/L, in less than 60 minutes
  ORP: below 600 mV vs SHE
[1]; contact time 3 minutes
  ORP (mV vs SHE): 701 mV vs SHE
[1]; contact time 13 minutes
  ORP (mV vs SHE): 581 mV vs SHE
[1]; contact time 35 minutes
  ORP (mV vs SHE): 446 mV vs SHE
[1]; contact time 90 minutes
  ORP (mV vs SHE): 420 mV vs SHE
[1]; frac on the fly make-up water, about 15 minute contact time
  ORP of water drawn from the frac tanks: less than 500 mV
[1]; Example 17, 29 mg/L
  ORP (mV vs SHE), maximum: over 700 mV vs SHE
[1]; Example 17, 29 mg/L plus 5 mg/L floc aid
  ORP (mV vs SHE), maximum: over 700 mV vs SHE
[1]; Example 17, 29 mg/L plus 5 mg/L floc aid, listed as Sodium Peracetate Oxidant
  ORP (mV vs SHE), maximum: 770 mV vs SHE
[1]; Example 17, 29 mg/L, listed as Sodium Peracetate Oxidant
  ORP (mV vs SHE), maximum: 766 mV vs SHE
[1]; Example 17, 52 mg/L
  ORP (mV vs SHE), maximum: over 800 mV vs SHE
[1]; Example 17, 52 mg/L, listed as Sodium Peracetate Oxidant
  ORP (mV vs SHE), maximum: 809 mV vs SHE
[1]; Example 18, 0.30 mmol/L oxidant
  ORP (mV vs SHE), maximum: 766 mV vs SHE
pH of treated water; early flowback water, Example 19, 1.7 mmol/L oxidant, contact time 3 minutes
  pH: 6.83
pH of treated water; early flowback water, Example 19, 1.7 mmol/L oxidant, contact time 13 minutes
  pH: 6.87
pH of treated water; early flowback water, Example 19, 1.7 mmol/L oxidant, contact time 35 minutes
  pH: 6.88
pH of treated water; early flowback water, Example 19, 1.7 mmol/L oxidant, contact time 90 minutes
  pH: 6.89
pH of treated water; produced water (Denver-Julesburg), Example 17, 29 mg/L
  pH: 6.2
pH of treated water; produced water, Example 17, 29 mg/L plus 5 mg/L floc aid (Polymer B-40)
  pH: 6.3
pH of treated water; [4]
  pH: 5.9
pH of treated water; [5]
  pH: 6.2
[2]; 29 mg/L plus 5 mg/L floc aid
  Magnesium (mg/L as CaCO3): 200 mg/L as CaCO3
  Calcium (mg/L as CaCO3): 940 mg/L as CaCO3
  Hardness (mg/L as CaCO3): 1140 mg/L as CaCO3
[2]; 52 mg/L
  Magnesium (mg/L as CaCO3): 200 mg/L as CaCO3
  Calcium (mg/L as CaCO3): 1020 mg/L as CaCO3
  Hardness (mg/L as CaCO3): 1220 mg/L as CaCO3
[3]; 7.5% (wt/vol) solution, 25 °C, clean water, initial pH 10.1
  half-life: 1.33 to 1.42 h
[3]; 7.5% solution, 25 °C, at 265 min, initial pH 10.1
  final pH of solution: 7.3
[3]; within about 6 days' time
  concentration of oxidant: less than 5 mg/L
